# Laboratory results: PMC7255010, “Small-molecule activating SIRT6 elicits therapeutic effects and synergistically promotes anti-tumor activity of vitamin D3 in colorectal cancer” (Theranostics, 2020)
# “And” between values parts separate entries of the source, which are not always exact repeats. Equal values may be shown once.
# Legend:
# SIRT6 = SIRT6 (Homo sapiens, UniProt Q8N6T7); assay: Cellular thermal shift assay (CETSA) in HCT116 cells; format: cell-based
# Procedure: CETSA was conducted as previously described. HCT116 cells were seeded in 10-cm cell culture dishes and grown to ~90% confluence. […] Cell pellets were collected by centrifugation (1,000 × g, 5 min, 4 °C), resuspended in 600 μL of 1× PBS, and distributed into different 0.2-mL tubes, each with 40 μL of cell suspension. The tubes were heated at the indicated temperature endpoints (38.5-51.5 °C) for 3 min in a PCR thermocycler. Immediately after heating, the tubes were incubated at room temperature for another 3 min. The samples were subjected to two freeze-thaw cycles in liquid nitrogen. Each cell lysate was centrifuged (15,000 × g for 20 min at 4 °C), and 25 μL of supernatant was collected. The supernatants were lysed in 25 μL of 2× SDS loading buffer at 95 °C for 10 min. Then, the samples were centrifuged, and the supernatants were analyzed by western blotting. Quantification of the SIRT6 level was performed with ImageJ V4. The signal intensity of each protein band on the western blots was normalized to the signal intensity observed at 38.5 °C. The corresponding signal intensities were plotted against temperature in GraphPad Prism V7. Each data point is shown as the mean ± s.e.m. of four independent experiments.
# [1] = Pharmacokinetic studies in mice; format: in vivo; conditions: male, mouse, plasma, C57BL/6J mice
# Procedure: Pharmacokinetic studies were performed by Shanghai Medicilon Inc, China, following standard protocols. Briefly, six-week-old male C57BL/6J mice were grouped randomly (n = 5 per group). […] Two administration formulations were prepared in the vehicle with 5% DMSO, 10% Solutol and 85% saline, with the pH adjusted to 7.0-8.0. After treatment, the mice were sacrificed, and their plasma samples were collected at 5 min, 15 min, 30 min, 1 h, 2 h, 4 h, 8 h, and 24 h. The drug concentration in plasma was analyzed by LC-MS/MS. Pharmacokinetic parameters were calculated using Analyst Software 1.6.3 from mean plasma concentration-time profiles. The area under the curve (AUC) was measured from time versus concentration data by the linear trapezoidal rule. […] The calculation was normalized to relative doses.
# [2] = test system: CRC cell lines (HCT116, HT29, SW480); assay: LDH assay of cytotoxicity in CRC cell lines; format: cell-based; conditions: 48 h, pharmacological concentrations
# Procedure: Cell cytotoxicity was assessed by measuring LDH release from damaged or dead cells using a Cytotoxicity LDH Assay Kit-WST (Dojindo) following the manufacturer's instructions. Briefly, 5 × 10^3 cells per well were plated in 96-well plates. […] The final DMSO concentration in the medium was 0.1%. The amount of LDH leakage from the cells was determined by measuring the absorbance at 490 nm using a microplate reader (Synergy H4 Hybrid Reader, BioTek). The percentage of cytotoxicity was calculated as follows: [(test sample - low control)/ (high control - low control)] × 100, where low control is the absorbance of the culture medium without any added extract, and high control is the absorbance of the culture medium in which the cells were treated with 1% (v/v) Triton X-100 to achieve 100% LDH release. Each data point is presented as the mean ± s.d. of three independent experiments.
# FHC = assay: Cell proliferation, CCK-8, non-cancerous colon cell line; format: cell-based; conditions: Homo sapiens, CCK-8, 48 h, Figure S6, mean ± s.e.m. of three experiments
# [3] = Body weights and behaviour of xenograft models; format: in vivo; conditions: CDX and PDX mice at the efficacy dosage
# Procedure: All animal studies were performed following federal and institutional guidelines approved by the Institutional Animal Care and Use Committee at Shanghai Jiao-Tong University School of Medicine. To establish the CDXs, HCT116 cells (1 × 10^6) suspended in 100 μL of 1× PBS were injected subcutaneously into the flanks of six-week-old male BALB/c nude mice. To establish the PDXs, primary tumors resected from two independent CRC patients (patient #1 and #2) were collected in the culture medium. The necrotic and supporting tissues were carefully removed using sterilized surgical blades. The gross tumor was cut into fragments (2-3 mm in diameter) and inoculated subcutaneously into the flanks of nude mice. The mice were monitored daily, and caliper measurements began when tumors became visible. The tumor volume was monitored every other day via calipers. The tumor volume was calculated using the following formula: (L × W ^2) / 2, where L and W refer to the tumor diameter along the longitudinal and transverse axes, respectively. When the mean tumor volume was approximately 100 to 250 mm^3, the mice were randomly grouped (n = 6 per group for CDXs, n = 8 per group for PDXs), and treatment was initiated. […] After treatment or if meeting the humane endpoint criteria, the mice were sacrificed by CO2 asphyxiation. The tumors were dissected, imaged, and weighed. […]
# HCT116 xenograft tumors = assay: Combination treatment in the HCT116 CDX model; format: in vivo, BALB/c nude mice; conditions: 15 mg/kg MDL-811 plus 50 μg/kg 1,25(OH)2D3 intraperitoneally every other day for 14 days, vs vehicle or single drug
# CYP24A1 = assay: RT-qPCR of CYP24A1 mRNA in CRC cells; format: cell-based, human
# Procedure: Total RNA was extracted with TRIzol reagent (Invitrogen) according to the manufacturer's instructions. For cDNA synthesis, 1 μg of total RNA was reverse transcribed using a FastKing RT Kit (Tiangen). RT-qPCRs were run in triplicate using SYBR Green master mix (Roche) in an ABI 7900 Thermal Cycler (Applied Biosystems) according to the manufacturer's instructions. RT-qPCRs were performed in triplicate, and the mean cycle threshold (Ct) values were calculated for expression analysis. The mRNA levels of target genes were calculated using the 2^-ΔΔCt method. The expression data were normalized to β-actin expression levels and are presented as the mean ± s.e.m. of three independent experiments.
# [4] = 30 mg/kg, IP 30 mg/mL, mean of five mice
# SIRT6, sequence (Q8N6T7 whole entry): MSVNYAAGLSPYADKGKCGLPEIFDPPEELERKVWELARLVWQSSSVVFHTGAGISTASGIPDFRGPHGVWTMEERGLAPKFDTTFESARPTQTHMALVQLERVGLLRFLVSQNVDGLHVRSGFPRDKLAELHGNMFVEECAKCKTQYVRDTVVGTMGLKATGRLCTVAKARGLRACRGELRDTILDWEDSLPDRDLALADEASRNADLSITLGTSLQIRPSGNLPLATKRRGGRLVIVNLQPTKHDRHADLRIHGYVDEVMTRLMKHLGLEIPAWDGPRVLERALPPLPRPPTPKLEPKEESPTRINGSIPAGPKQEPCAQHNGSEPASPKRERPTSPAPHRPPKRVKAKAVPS
smiles,measurement,setting,value
Cc1cc(F)c(Br)cc1NS(=O)(=O)c1ccc(NS(=O)(=O)c2cc(Cl)cc(Cl)c2)cc1CN1CCOC[C@H]1C [MDL-811],Melting Temperature (Tm) of SIRT6,"SIRT6; 10 µM MDL-811, 24 h, HCT116 cells, DMSO 45.8 ± 0.3, mean ± s.e.m., four experiments",47.6 ± 0.1 °C and 47.6 °C
same,ΔTm at 10 µM,SIRT6; HCT-116,1.8 ± 0.2 °C
same,AUC(0-inf),[1]; [4],19700 ng·h/mL
same,half-life,[1]; [4],1.38 h
same,AUC0-t,"[1]; 30 mg/kg, IP 30 mg/mL, mean of five mice, read-out: AUC0-t",19600 ng·h/mL
same,Cmax,"[1]; 30 mg/kg, IP 30 mg/mL, mean of five mice, read-out: Cmax",5330 ng/mL
same,MRT,"[1]; 30 mg/kg, IP 30 mg/mL, mean of five mice, read-out: MRT",2.63 h
same,tmax,"[1]; 30 mg/kg, IP 30 mg/mL, mean of five mice, read-out: tmax",0.5 h
same,bioavailability,"[1]; intraperitoneal, IP 30 mg/mL vs IV, ratio of AUC normalized to dose, read-out: F (bioavailability)",93%
same,cytotoxicity (LDH release),[2],minimal cytotoxic effect
same,IC50,FHC,24.4 ± 0.5 µM
same,weight loss and behavioral signs,[3],did not observe any significant weight loss or other abnormal behavioral signs
same,"tumor growth, cotreatment",HCT116 xenograft tumors,dramatically enhanced tumor growth regression
same,"1,25(OH)2D3-enhanced CYP24A1 transcription, cotreatment","CYP24A1; HCT116 and HT29 cells, MDL-811 (5 µM) plus 1,25(OH)2D3 (5 µM), 48 h",effectively abolished
same,CYP24A1 mRNA expression levels,"CYP24A1; HCT116 cells, 10 µM MDL-811, 48 h",markedly decreased CYP24A1 mRNA expression levels
